According to PubChem BioAssay AID318 (DTP/NCI, 2004):
Where “and” joins values, the source holds several entries; their conditions need not be identical. Equal entries are not always repeated. Inconclusive results and toxic doses are left out.

Tested on: BDF1 mice, P815 leukemia ip, survival T/C
Test: NCI In Vivo Anticancer Drug Screen. Data for tumor model P815 Mast Cell Leukemia (Ascitic) (intraperitoneal) in B6D2F1 (BDF1) mice
Conditions: endpoint: survival time, mean or median, schedule: Q01DX010 (ip), higher = longer survival
Method: The antitumor activity of compounds was measured in mice bearing transplantable tumors. Survival or tumor size were measured and the results are expressed as the measurement made in the treated group (T) divided by the measurement made in the vehicle treated control group (C). The tumor model used in this assay is P815 Mast Cell Leukemia (Ascitic) (intraperitoneal) in B6D2F1 (BDF1) mice

[1] = dose: 6.25 mg/kg/injection, vehicle: saline
[2] = dose: 12.5 mg/kg/injection, vehicle: saline
[3] = dose: 25.0 mg/kg/injection, vehicle: saline
[4] = dose: 50.0 mg/kg/injection, vehicle: saline
[5] = dose: 62.5 mg/kg/injection, vehicle: saline
[6] = dose: 120.0 mg/kg/injection, vehicle: saline
[7] = dose: 80.0 mg/kg/injection, vehicle: saline
[8] = dose: 10.0 mg/kg/injection, vehicle: saline
[9] = dose: 40.0 mg/kg/injection, vehicle: saline
[10] = dose: 2.5 mg/kg/injection, vehicle: saline
[11] = dose: 125.0 mg/kg/injection, vehicle: saline
[12] = dose: 250.0 mg/kg/injection, vehicle: saline
[13] = dose: 500.0 mg/kg/injection, vehicle: saline

## CS(=O)(=O)OCCCCOS(C)(=O)=O
[1]
  T/C: 104 % of control and 118 % of control
[2]
  T/C: 86 % of control
[3]
  T/C: 86 % of control and 95 % of control
[4]
  T/C: 86 % of control and 95 % of control

## N#CCSc1ncnc2nc[nH]c12
dose: 7.5 mg/kg/injection, vehicle: saline
  T/C: 100 % of control
dose: 15.0 mg/kg/injection, vehicle: saline
  T/C: 100 % of control and 111 % of control
dose: 30.0 mg/kg/injection, vehicle: saline
  T/C: 100 % of control and 111 % of control
dose: 60.0 mg/kg/injection, vehicle: saline
  T/C: 94 % of control and 122 % of control

## CCN(CC)CCNc1ccc(C)c2sc3ccccc3c(=O)c12
[3]
  T/C: 107 % of control and 113 % of control
[4]
  T/C: 118 % of control and 123 % of control

## CCCCNc1ncnc2c1cnn2C
dose: 31.25 mg/kg/injection, vehicle: saline
  T/C: 95 % of control and 100 % of control
[5]
  T/C: 108 % of control

## O=C(Nc1ccc(C2=NCCN2)cc1)Nc1cccc(NC(=O)Nc2ccc(C3=NCCN3)cc2)c1
[6]
  T/C: 258 % of control and 276 % of control
dose: 240.0 mg/kg/injection, vehicle: saline
  T/C: 88 % of control and 92 % of control

## CN(C)c1nc(N(C)C)nc(N(C)C)n1
dose: 18.8 mg/kg/injection, vehicle: saline
  T/C: 94 % of control and 102 % of control
dose: 37.5 mg/kg/injection, vehicle: saline
  T/C: 94 % of control
dose: 75.0 mg/kg/injection, vehicle: saline
  T/C: 97 % of control and 102 % of control
dose: 150.0 mg/kg/injection, vehicle: saline
  T/C: 102 % of control and 107 % of control

## Nc1nc(N)c2nc(CNc3ccc(C(=O)NC(CCC(=O)O)C(=O)O)cc3)cnc2n1 (stereo unspecified)
dose: 0.03 mg/kg/injection, vehicle: other
  T/C: 102 % of control and 105 % of control
dose: 0.05 mg/kg/injection, vehicle: other
  T/C: 100 % of control and 102 % of control
dose: 0.1 mg/kg/injection, vehicle: other
  T/C: 100 % of control and 108 % of control
dose: 0.2 mg/kg/injection, vehicle: other
  T/C: 105 % of control and 108 % of control

## CN(C)c1ccc(Nc2c3ccccc3nc3ccccc23)cc1
dose: 36.0 mg/kg/injection, vehicle: saline
  T/C: 105 % of control and 122 % of control
dose: 54.0 mg/kg/injection, vehicle: saline
  T/C: 120 % of control and 122 % of control
[7]
  T/C: 166 % of control
[6]
  T/C: 111 % of control

## CC1CCOS(=O)O1 (stereo unspecified)
[8]
  T/C: 100 % of control
dose: 20.0 mg/kg/injection, vehicle: saline
  T/C: 100 % of control
[9]
  T/C: 100 % of control
[7]
  T/C: 88 % of control

## N#[N+]c1cnc([O-])[nH]c1=O
dose: 1.25 mg/kg/injection, vehicle: saline
  T/C: 150 % of control
[10]
  T/C: 205 % of control
dose: 5.0 mg/kg/injection, vehicle: saline
  T/C: 215 % of control and 150 % of control
[8]
  T/C: 205 % of control and 161 % of control

## CCOC(N)=O
[11]
  T/C: 100 % of control
[12]
  T/C: 100 % of control and 118 % of control
[13]
  T/C: 100 % of control and 104 % of control

## N=[N+]=CC(=O)OCC(N)C(=O)O (stereo unspecified)
dose: 3.13 mg/kg/injection, vehicle: saline
  T/C: 110 % of control and 111 % of control
[1]
  T/C: 118 % of control and 119 % of control
[2]
  T/C: 100 % of control and 123 % of control

## S=P(N1CCOCC1)(N1CC1)N1CC1
[10]
  T/C: 97 % of control and 100 % of control
[9]
  T/C: 100 % of control

## Nc1nc(=S)c2ncn(C3OC(CO)C(O)C3O)c2[nH]1 (stereo unspecified)
dose: 2.0 mg/kg/injection, vehicle: saline
  T/C: 155 % of control

## O=c1cn[nH]c(=O)[nH]1
[5]
  T/C: 91 % of control and 95 % of control
[11]
  T/C: 91 % of control and 100 % of control
[12]
  T/C: 95 % of control
[13]
  T/C: 100 % of control and 104 % of control

## OCC1OC(n2cnc3c(Cl)ncnc32)C(O)C1O (stereo unspecified)
[5]
  T/C: 104 % of control and 108 % of control
[11]
  T/C: 100 % of control and 104 % of control
[12]
  T/C: 91 % of control and 100 % of control
[13]
  T/C: 95 % of control
